The values that follow come from PMC12715762, “Discovery of VU6052254: A Novel, Potent M1 Positive Allosteric Modulator” (ACS Chemical Neuroscience, 2025).

pEC50, pIC50: −log10 of the molar value. Several values for one entry are separate records, joined by “and”; a condition that tells them apart may be missing. Identical values can stand only once. Some results are limits rather than exact numbers.

For orientation: pEC50 means the EC50 on a negative log10 scale, so that one unit is a factor of ten. The pIC50 is −log10 of the IC50, conventionally taken in molar units. A higher pIC50 goes with a low IC50.

One data set deals with T1, human M1 (Homo sapiens, UniProt P11229).
T1 sequence (P11229 1-460): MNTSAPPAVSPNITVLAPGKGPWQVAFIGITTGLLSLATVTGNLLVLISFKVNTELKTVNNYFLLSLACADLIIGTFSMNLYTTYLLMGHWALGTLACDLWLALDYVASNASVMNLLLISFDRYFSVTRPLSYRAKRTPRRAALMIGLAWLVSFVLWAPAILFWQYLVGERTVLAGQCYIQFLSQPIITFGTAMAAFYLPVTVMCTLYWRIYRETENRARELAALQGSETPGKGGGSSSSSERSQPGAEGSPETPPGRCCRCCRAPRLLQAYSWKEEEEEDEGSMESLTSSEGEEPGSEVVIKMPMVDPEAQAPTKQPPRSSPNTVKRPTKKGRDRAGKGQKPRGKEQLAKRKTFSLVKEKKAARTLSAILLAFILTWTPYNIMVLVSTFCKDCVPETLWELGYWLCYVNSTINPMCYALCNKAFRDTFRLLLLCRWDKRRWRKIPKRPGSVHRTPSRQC
Nature of the data set: M1 PAM calcium mobilization assay (human). Type of data set: cell-based. To be noted: for hM1 PAM AChmax (%): human M1, % ACh max, n = 9. On the procedure:
Procedures for Biological Experiments
Calcium mobilization assays:
All functional cell-based assays were performed in stable Chinese Hamster Ovary (CHO) cell lines constitutively expressing human M5 or human M1 receptors. For full muscarinic selectivity, CHO cells expressing human M3, human M2 plus Gqi5 or human M4 plus Gqi5 were used. Cells were plated at 15,000 cells per 20 µL per well in black 384-well, TC-treated, clear-bottomed plates (Greiner) in Ham’s F12 medium supplemented with 10% FBS and 20 mM HEPES. Cells were incubated overnight at 37 °C under 5% CO2. The following day, the medium was removed and replaced with 1.2 µM Fluo-4 AM (Invitrogen) in assay buffer (Hank’s Balanced Salt Solution supplemented with 20 mM HEPES and 2.5 mM Probenecid, pH 7.4) and the cells were incubated for 50 minutes at 37 °C under 5% CO2. Dye was then removed and replaced with 20 µL of fresh assay buffer. Test compounds at a 10 mM concentration in DMSO were serially diluted in DMSO (either 1:3 or 1:5 dilution) to create a 10-point concentration series. The DMSO solutions were then diluted in assay buffer resulting in compound solutions at 2-times the final assay concentration with the highest assay concentration of 30 µM. The compound plate, cell plate, and plates containing EC20 and EC80 acetylcholine concentrations were placed in a Hamamatsu FDSS 6000 or 7000 kinetic imaging plate reader equipped to measure Ex480/Em540 fluorescence. Data were collected at 1 frame per second. After 2 seconds of collecting baseline fluorescence, 20 µL of the compound solutions were added to the cell plate. This was followed by the addition of an EC20 concentration of acetylcholine at 142 seconds. […] The fluorescence signal was collected for a total of 300 seconds. […] Data were imported and analyzed in Dotmatics Informatics software. by normalizing all data in the individual kinetic traces to the initial fluorescence read. The magnitude of each agonist addition was then determined and normalized to the average maximum response. […] The IC50 determined using the EC80 of acetylcholine is the value reported. […]
A general note: Calcium flux is commonly read through the fluorescence of an indicator in the cells.

The subject of a further data set is rM2-5. Nature of the data set: muscarinic selectivity calcium mobilization (rat M2-5). It counts as cell-based.
Data set [1] in a line: predicted hepatic clearance, hepatic microsomes (human). Type of data set: in vitro ADME. The settings on record: human (h). On the procedure: After a 5 min preincubation, the reaction was initiated by the addition of NADPH (1 mM). At selected time intervals (0, 3, 7, 15, 25, and 45 min), aliquots were taken and subsequently placed into a 96-well plate containing cold acetonitrile with internal standard (50 ng/mL carbamazepine). Plates were then centrifuged at 3000 rcf (4 °C) for 10 min, and the supernatant was transferred to a separate 96-well plate and diluted 1:1 with water for LC/MS/MS analysis. The in vitro half-life ( 1/2, min, Eq. 1), intrinsic clearance (CLint, mL/min/kg, Eq. 2), and subsequent predicted hepatic clearance (CLhep, mL/min/kg, Eq. 3) was determined employing the […]
where k represents the slope from linear regression analysis of the natural log percent remaining of a test compound as a function of incubation time […]
(2) CLint = in vitroT x mg microsomes x gram liver x kg body wt ascale-up factors: of 20 (human) or 45 (rat) […]
where Qh (hepatic blood flow, mL/min/kg) is 21 (human) or 70 (rat).
LC/MS/MS Bioanalysis of Samples from Plasma Protein Binding and Intrinsic Clearance […]
Samples were analyzed on a Thermo Electron TSQ Quantum Ultra triple quad mass spectrometer (San Jose, CA) via electrospray ionization (ESI) with two Themo Electron Accella pumps (San Jose, CA), and a Leap Technologies CTC PAL autosampler (Carrboro, NC). […]

Another data set has as its target CYP 1A2 (Homo sapiens, UniProt P05177). Nature of the data set: CYP450 inhibition. Type of data set: in vitro ADME.

Chain of CYP 1A2 (P05177 whole entry): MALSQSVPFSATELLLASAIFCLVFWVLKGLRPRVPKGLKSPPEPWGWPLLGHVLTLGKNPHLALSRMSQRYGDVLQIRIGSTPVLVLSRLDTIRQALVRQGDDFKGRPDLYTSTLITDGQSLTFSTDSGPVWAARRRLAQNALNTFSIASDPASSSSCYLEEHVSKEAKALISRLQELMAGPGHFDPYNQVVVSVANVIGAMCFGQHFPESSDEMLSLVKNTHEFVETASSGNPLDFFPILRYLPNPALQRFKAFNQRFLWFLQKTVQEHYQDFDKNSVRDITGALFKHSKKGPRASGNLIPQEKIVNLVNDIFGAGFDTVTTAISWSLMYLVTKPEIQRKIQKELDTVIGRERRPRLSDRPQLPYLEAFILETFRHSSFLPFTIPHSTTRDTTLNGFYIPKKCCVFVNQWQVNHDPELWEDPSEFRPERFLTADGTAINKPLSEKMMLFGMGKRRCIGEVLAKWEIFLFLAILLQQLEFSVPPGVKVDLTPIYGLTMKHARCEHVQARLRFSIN

As for `Cn1cc2c(-c3cc(F)c(CN4Cc5ncccc5C4=O)c(F)c3)cccc2n1` [compound 1, reference compound], on human M1, the “hM1 PAM AChmax (%)” value is recorded as 71%. In addition, the pEC50 in the data set with rM2-5 was below 4.52. Besides, in data set [1], the “Predicted CLhep” value is on record as 1.3 mL/min/kg. Further, the pIC50 on CYP 1A2 is 4.85.

`Cn1cc2c(-c3cc(F)c(CN4Cc5ncccc5C4=O)c(F)c3)ccc(C(C)(C)O)c2n1` [compound 7]: on human M1, the “hM1 PAM AChmax (%)” value was 78% and 80%. For the same compound, the pEC50 was 7.23 on human M1 (human M1, n = 9, read-out: hM1 PAM EC50) and below 4.52 in the data set with rM2-5. In addition, the “Predicted CLhep” value in data set [1] is listed as 12.8 mL/min/kg. The compound further had a pIC50 on CYP 1A2 below 4.52.
